Reference: PMC6153549 (Investigational New Drugs, 2018)
Where “and” joins values, the source holds several entries; their conditions need not be identical. Equal values may be shown once. Entries after “also recorded” stand apart in the source; their conditions may differ. Read-outs that look alike come from different tables or passages of the source. Each block holds one compound with its values, some of them ahead of it.

Assays:
UGTs = conditions: in vitro, human liver microsomes; cited from earlier work
[1] = Plasma pharmacokinetics of lapatinib in rats (HPLC-MS/MS, non-compartmental); type: in vivo, Wistar rats; conditions: for AUC0-t / AUC(0-inf) / Cmax / Vd/F / k el / MRT last / tmax / AUMC0-t / Cl/F: plasma; for MRT last: read-out: MRT0-t
Description: (§1) The experimental protocol for this study was reviewed and approved by the Local Ethics Committee. All procedures were performed in accordance with the European Union regulations concerning the handling and use of laboratory animals. The study was based on the required minimum number of animals and observation time in order to obtain consistent data. […] The animals were allowed to acclimatise for a week before the beginning of the experiments. The rats were divided into three groups. […] In order to make sure that the animals received the entire dose of the drug, 1 mL of DMSO was then administered to rinse the probe. 80 μL of blood was collected from each rat by cutting off a piece of his tail. […] The blood samples were transferred into heparinised tubes and they were centrifuged at 2880 g for 10 min at 4 °C.
Chromatographic separation was performed on a Kinetex C18 column (50 × 4.6 mm, 2.6 μm, Phenomenex, Torrance, CA, USA). The column temperature and injection volume were set at 35 °C and 10 μL, respectively. The mobile phase comprised 0.1% formic acid in water with 5 mM ammonium formate (eluent A) and acetonitrile with 10% phase A (eluent B).
An aliquot of the rat plasma (20 μL) was mixed with 50 μL of IS solution (100 ng/mL) and 930 μL of methanol and then vortexed for 30 s. As a result, a total dilution factor of 50 was obtained. After centrifugation at 10,000 g (10 min), the supernatant was transferred into amber glass HPLC vials. The validation was performed according to the guidelines of EMA concerning validation of bioanalytical methods.
(§2) The pharmacokinetic parameters were estimated with the non-compartmental method, using Phoenix® WinNonlin® 7.0 software (Certara L.P.). kel – elimination rate constant; AUC0-t – area under the plasma concentration-time curve from zero to the time of the last measurable concentration; AUC0-∞ – area under the plasma concentration-time curve from zero to infinity; t0.5 – elimination half-life; Cl/F – clearance; Vd/F – volume of distribution; Cmax – maximum plasma concentration; tmax – time necessary to reach the maximum concentration; MRT0-t – mean residence time; AUMC0-t – area under the first moment curve.

UGT1A7 = test system: UGT1A7; set-up: method as in PMID 26642944; conditions: cited from earlier work
UGT1A4 = test system: UGT1A4; set-up: method as in PMID 26642944; conditions: cited from earlier work
[2] = cited from earlier work
UGT1A1 = test system: UGT1A1; set-up: method as in PMID 26642944; conditions: cited from earlier work
[3] = liver metabolism; cited from earlier work
[4] = Plasma pharmacokinetics of paracetamol, paracetamol glucuronide and paracetamol sulphate in rats (HPLC-UV, non-compartmental); type: in vivo, Wistar rats; conditions: for AUC(0-inf) / Vd/F / k el / AUC0-t / Cmax / MRT last / AUMC0-t / t0.5 / AUC0-∞: plasma; for MRT last: read-out: MRT0-t
Description: as §1
The total time of analysis for each run was 10 min. The column temperature was maintained at 25 °C, the UV detection wavelength was set at 261 nm, and the injection volume was 50 μL. The validation was performed according to the guidelines of the European Medicines Agency (EMA) concerning validation of bioanalytical methods. […] 20 μL of the internal standard solution and 200 μL of 6% perchloric acid were added to 100 μL of the rat plasma. The samples were shaken for 30 s and then they were centrifuged for 10 min at 5000 g. About 100 μL of the resulting supernatants was transferred into glass inserts and a volume of 50 μL was injected onto HPLC column.
as §2

[5] = lapatinib administered together with leucovorin, irinotecan and 5-fluorouracil; cited from earlier work
[6] = set-up: method as in PMID 28070719; reduction of exposure to sunitinib by paracetamol / reduction of exposure to sunitinib in liver by paracetamol / reduction of exposure to sunitinib in kidneys by paracetamol / reduction of exposure to sunitinib in brain by paracetamol: concentration or dose not given beside the values; conditions: cited from earlier work
[7] = male mice which received paracetamol; cited from earlier work
[8] = male, Wistar, rat, po, 100 mg/kg, rats, lapatinib 100 mg/kg p.o. + paracetamol 100 mg/kg p.o. (IL + PA), M ± SD
[9] = male, Wistar, rat, po, 100 mg/kg, rats, lapatinib 100 mg/kg p.o. alone (IIL), M ± SD
[10] = rats, lapatinib 100 mg/kg p.o. + paracetamol 100 mg/kg p.o. (IL + PA), M ± SD
[11] = rats, lapatinib 100 mg/kg p.o. alone (IIL), M ± SD
[12] = patients treated with lapatinib
[13] = male, Wistar, rat, po, 100 mg/kg, paracetamol 100 mg/kg p.o. + lapatinib 100 mg/kg p.o. (IL + PA), M ± SD
[14] = male, Wistar, rat, po, 100 mg/kg, paracetamol 100 mg/kg p.o. alone (IIIPA), M ± SD
[15] = paracetamol 100 mg/kg p.o. + lapatinib 100 mg/kg p.o. (IL + PA), M ± SD
[16] = paracetamol 100 mg/kg p.o. alone (IIIPA), M ± SD
[17] = IL + PA vs IIIPA group, listed as paracetamol glucoronide
[18] = paracetamol + lapatinib 100 mg/kg p.o. each (IL + PA), M ± SD

Compound: CNC(=O)c1cc(Oc2ccc(NC(=O)Nc3ccc(Cl)c(C(F)(F)F)c3)cc2)ccn1 [sorafenib]
inhibition of paracetamol glucuronidation (UGTs): inhibited paracetamol glucuronidation

Compound: Cc1nc(Nc2ncc(C(=O)Nc3c(C)cccc3Cl)s2)cc(N2CCN(CCO)CC2)n1 [dasatinib]
inhibition of paracetamol glucuronidation (UGTs): inhibited paracetamol glucuronidation

AUC0-t [1, 8]: 20700 ± 8270 ng·h/mL
AUC(0-inf) [1, 8]: 39500 ± 24000 ng·h/mL
Cmax [1, 8]: 2240 ± 585 ng/mL
Vd/F [1, 8]: 17.5 ± 2.55 L
k el [1, 8]: 1.94e-05 s⁻¹
MRT last [1, 8]: 7.28 ± 3.15 h
AUC0-t [1, 9]: 6080 ± 3930 ng·h/mL
AUC(0-inf) [1, 9]: 8040 ± 4750 ng·h/mL
Cmax [1, 9]: 787 ± 213 ng/mL
Vd/F [1, 9]: 57.2 ± 23.3 L
k el [1, 9]: 2.5e-05 s⁻¹
MRT last [1, 9]: 5.77 ± 1.95 h
tmax ([1]; male, Wistar, rat, po, 100 mg/kg, read-out: tmax): 2.42 ± 1.11 h
increase in Cmax ([1]; rats, co-administration with paracetamol (IL + PA) vs lapatinib alone (IIL)): 184%
AUMC0-t [1, 10]: 620.79 ± 1170.66 (188.6) mg × h^2/L
Cl/F [1, 10]: 2.81 ± 1.20 (42.8) L/h
tmax [1, 10]: 2.50 ± 0.84 (33.5) h
AUMC0-t [1, 11]: 40.79 ± 37.98 (93.1) mg × h^2/L
Cl/F [1, 11]: 11.46 ± 6.76 (59.0) L/h
Compound: CS(=O)(=O)CCNCc1ccc(-c2ccc3ncnc(Nc4ccc(OCc5cccc(F)c5)c(Cl)c4)c3c2)o1 [lapatinib, Lapatinib]
UGT1A7 inhibition type (UGT1A7): non-competitive
inhibition of paracetamol glucuronidation (UGTs): slight inhibitory effect; also recorded: weak inhibitor
UGT1A4 inhibition type (UGT1A4): mixed
patients with isolated ALT increase more than 3 times ULN ([2]; patients subjected to lapatinib therapy): 3–5%
patients in whom ULN was exceeded 5–20 times [2, 12]: 1.6%
patients with hyperbilirubinemia and severe liver damage [2, 12]: 0.2%
UGT1A1 inhibition (UGT1A1): strong competitive inhibitor

decrease in AUC0-t ([4]; IL + PA vs IIIPA group): ~56.8%
decrease in AUC0-∞ ([4]; IL + PA vs IIIPA group): 48.8%
increase in MRT0-t ([4]; IL + PA vs IIIPA group): 12.1%
increase in Vd/F ([4]; IL + PA vs IIIPA group): 351.5%
AUC(0-inf) [4, 13]: 45400 ± 21200 ng·h/mL
Vd/F [4, 13]: 8.94 ± 8.04 L
k el [4, 13]: 6.67e-05 s⁻¹
AUC0-t ([4]; male, Wistar, rat, po, 100 mg/kg, paracetamol 100 mg/kg p.o. + lapatinib 100 mg/kg p.o. (IL + PA), M ± SD, read-out: AUC0-t): 34800 ± 20100 ng·h/mL
Cmax ([4]; male, Wistar, rat, po, 100 mg/kg, paracetamol 100 mg/kg p.o. + lapatinib 100 mg/kg p.o. (IL + PA), M ± SD, read-out: Cmax): 10900 ± 6880 ng/mL
MRT last [4, 13]: 2.88 ± 0.27 h
AUC(0-inf) [4, 14]: 88600 ± 8960 ng·h/mL
Vd/F [4, 14]: 1.98 ± 0.63 L
k el [4, 14]: 9.17e-05 s⁻¹
AUC0-t ([4]; male, Wistar, rat, po, 100 mg/kg, paracetamol 100 mg/kg p.o. alone (IIIPA), M ± SD, read-out: AUC0-t): 80500 ± 12100 ng·h/mL
Cmax ([4]; male, Wistar, rat, po, 100 mg/kg, paracetamol 100 mg/kg p.o. alone (IIIPA), M ± SD, read-out: Cmax): 24700 ± 8430 ng/mL
MRT last [4, 14]: 2.57 ± 0.3 h
AUMC0-t [4, 15]: 97.11 ± 52.00 (53.6) μg × h^2/mL
t0.5 [4, 15]: 5.30 ± 6.92 (130.7) h
AUMC0-t [4, 16]: 203.85 ± 18.15 (8.9) μg × h^2/mL
t0.5 [4, 16]: 2.26 ± 0.70 (31.0) h
Compound: CC(=O)Nc1ccc(O)cc1 [paracetamol, Paracetamol]
fraction oxidised to toxic metabolite NAPQI [3]: less than 10%
fraction transformed by glucuronidation [3]: 40–60%
fraction transformed by sulphation [3]: 20–46%

decrease in AUC0-t ([4]; IL + PA vs IIIPA group): 26%
decrease in AUC0-∞ ([4]; IL + PA vs IIIPA group): 29%
decrease in Cmax ([4]; IL + PA vs IIIPA group): 24%
decrease in AUC0-t [4, 17]: ~25.5%
decrease in AUC0-∞ [4, 17]: ~28.6%
decrease in Cmax [4, 17]: about 24.4%
AUC0-t [4, 15]: 101.50 ± 22.02 (21.7) μg × h/mL
AUC0-∞ [4, 15]: 109.94 ± 22.89 (20.8) μg × h/mL
Cmax [4, 15]: 29.01 ± 7.62 (26.3) μg/mL
paracetamol glucuronide/paracetamol ratio, AUC0-t [4, 16]: 1.75 ± 0.47 (27.1)
paracetamol glucuronide/paracetamol ratio, Cmax [4, 16]: 1.67 ± 0.41 (24.7)
AUC0-t [4, 16]: 136.24 ± 23.58 (17.31) μg × h/mL
AUC0-∞ [4, 16]: 154.08 ± 35.58 (23.09) μg × h/mL
Cmax [4, 16]: 38.38 ± 3.75 (9.76) μg/mL
paracetamol glucuronide/paracetamol ratio, AUC0-t [4, 18]: 3.68 ± 1.67 (45.4)
paracetamol glucuronide/paracetamol ratio, AUC0-∞ [4, 18]: 3.36 ± 2.37 (70.6)
paracetamol glucuronide/paracetamol ratio, Cmax [4, 18]: 3.58 ± 1.85 (51.5)
Compound: CC(=O)Nc1ccc(O[C@@H]2O[C@H](C(=O)O)[C@@H](O)[C@H](O)[C@H]2O)cc1 [paracetamol glucuronide]

Compound: C#Cc1cccc(Nc2ncnc3cc(OCCOC)c(OCCOC)cc23)c1 [erlotinib, Erlotinib]
inhibition of paracetamol glucuronidation (UGTs): slight inhibitory effect

Compound: Cc1cn(-c2cc(NC(=O)c3ccc(C)c(Nc4nccc(-c5cccnc5)n4)c3)cc(C(F)(F)F)c2)cn1 [nilotinib]
inhibition of paracetamol glucuronidation (UGTs): slight inhibitory effect

Compound: CCc1c2c(nc3ccc(O)cc13)-c1cc3c(c(=O)n1C2)COC(=O)[C@]3(O)CC [SN-38]
increase in AUC of SN-38 [5]: about 40%

increase in AUC0-t ([4]; IL + PA vs IIIPA group): ~61% and 61.4%
AUC0-t [4, 15]: 116.04 ± 27.02 (23.3) μg × h/mL
AUC0-∞ [4, 15]: 130.23 ± 31.32 (24.1) μg × h/mL
Cmax [4, 15]: 35.15 ± 6.61 (18.8) μg/mL
paracetamol sulphate/paracetamol ratio, AUC0-t [4, 16]: 0.91 ± 0.43 (47.3)
paracetamol sulphate/paracetamol ratio, AUC0-∞ [4, 16]: 1.05 ± 0.45 (43.1)
paracetamol sulphate/paracetamol ratio, Cmax [4, 16]: 0.88 ± 0.46 (52.7)
AUC0-t [4, 16]: 71.92 ± 31.04 (43.2) μg × h/mL
AUC0-∞ [4, 16]: 82.42 ± 32.71 (39.7) μg × h/mL
Cmax [4, 16]: 19.41 ± 7.05 (36.4) μg/mL
paracetamol sulphate/paracetamol ratio, AUC0-t [4, 18]: 4.27 ± 2.29 (53.5)
paracetamol sulphate/paracetamol ratio, AUC0-∞ [4, 18]: 4.86 ± 2.74 (56.5)
paracetamol sulphate/paracetamol ratio, Cmax [4, 18]: 4.73 ± 3.02 (64.0)
Compound: CC(=O)Nc1ccc(OS(=O)(=O)O)cc1 [paracetamol sulphate]

Compound: Cc1ccc(NC(=O)c2ccc(CN3CCN(C)CC3)cc2)cc1Nc1nccc(-c2cccnc2)n1 [imatinib]
inhibition of paracetamol glucuronidation (UGTs): inhibited paracetamol glucuronidation

Compound: COc1cc2c(Nc3ccc(Br)cc3F)ncnc2cc1OCC1CCN(C)CC1 [vandetanib]
inhibition of paracetamol glucuronidation (UGTs): slight inhibitory effect

Compound: CCN(CC)CCNC(=O)c1c(C)[nH]c(/C=C2\C(=O)Nc3ccc(F)cc32)c1C [sunitinib]
effect of paracetamol on sunitinib concentration ([6]; female mice): did not affect the concentration
reduction of exposure to sunitinib in brain by paracetamol ([6]; female mice): 50%
reduction of exposure to sunitinib in kidneys by paracetamol ([6]; female mice): 20%
reduction of exposure to sunitinib in liver by paracetamol ([6]; female mice): 9%
reduction of exposure to sunitinib by paracetamol ([6]; male mice): 29%
reduction of exposure to sunitinib in brain by paracetamol ([6]; male mice): 47%
reduction of exposure to sunitinib in kidneys by paracetamol ([6]; male mice): 15%
reduction of exposure to sunitinib in liver by paracetamol ([6]; male mice): 15%
kidney sunitinib concentration vs control group [7]: 1.4 times
liver sunitinib concentration vs control group [7]: 2.2 times
